The values below come from patent publication US9227935B2, “Piperidine/piperazine derivatives” (Janssen Pharmaceutica N.V., priority 2007, dated 2016).

One data set deals with T1, human DGAT1 (Homo sapiens, UniProt O75907).
T1 construct: FLAG (N); made in house; host or cells: SF9 insect cells (baculovirus, pFastBac); total cell membranes used as the enzyme source
T1 sequence (O75907 1-488): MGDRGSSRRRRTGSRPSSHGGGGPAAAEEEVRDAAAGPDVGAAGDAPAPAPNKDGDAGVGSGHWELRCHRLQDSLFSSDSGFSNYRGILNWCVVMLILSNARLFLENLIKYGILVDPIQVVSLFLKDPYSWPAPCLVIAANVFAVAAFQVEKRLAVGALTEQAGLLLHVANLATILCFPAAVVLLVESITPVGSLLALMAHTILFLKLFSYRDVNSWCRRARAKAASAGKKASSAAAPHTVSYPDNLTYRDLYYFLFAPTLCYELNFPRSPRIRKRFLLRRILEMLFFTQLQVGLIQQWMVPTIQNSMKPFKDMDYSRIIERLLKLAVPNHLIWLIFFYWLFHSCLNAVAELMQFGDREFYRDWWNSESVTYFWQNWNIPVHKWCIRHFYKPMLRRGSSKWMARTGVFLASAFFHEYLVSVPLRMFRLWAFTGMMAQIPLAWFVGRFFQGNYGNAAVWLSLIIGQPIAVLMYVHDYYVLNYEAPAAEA
The data set is described as follows: DGAT1 FlashPlate inhibition assay with DGAT1 membrane preparations. Type of data set: biochemical. Particulars: IC50 values expressed in M; pIC50 = -logIC50; inhibition of DGAT1 activity. In outline: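 Membranes from Sf9 cells expressing N-FLAG human DGAT1 were incubated 120 min at 37 °C with 50 μM DAG in PC/PS micelles and 8.4 μM [3H]-oleoylCoA in Tris pH 7.4, MgCl2, EDTA and 0.2% BSA. The reaction was stopped with N-ethylmaleimide, and triacylglycerol was read by FlashPlate radioluminescence and normalised to enzyme and no-enzyme controls.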

By IC50 is commonly meant the point on the concentration scale where inhibition reaches its midpoint. High values mean weaker potency in that assay, low ones greater potency in that assay. Usually melting point stands for the temperature of the solid-liquid transition. For `CC(C)N(Cc1cc(Cl)c(NC(=O)N2CCN(c3ccc(NC(=O)c4cccc(N5CCCC5)c4)cc3)CC2)c(Cl)c1)C(C)C` [Compound 137], the melting point is 270.85 °C. For the same molecule, inhibition against human DGAT1 was half-maximal at 4.17 nM (IC50).
As for `O=C(Nc1ccc(N2CCN(C(=O)Nc3c(Cl)cccc3Cl)CC2)cc1)c1ccccc1-c1ccc(C(F)(F)F)cc1` [Compound 9], the melting point worked out at 289 °C. The half-maximal inhibitory concentration (IC50) at human DGAT1 was 30.2 nM.
The matching figures for `O=C(Nc1ccc(N2CCN(C(=O)Oc3c(Cl)cccc3Cl)CC2)cc1)c1cccc(N2CCCC2)c1` [Compound 139]: 212.69 °C and 6.46 nM.
Turning to `O=C(Nc1ccc(N2CCN(C(=S)Nc3c(Cl)cccc3Cl)CC2)cc1)c1ccccc1-c1ccc(C(F)(F)F)cc1` [Compound 8], the melting point came out at 224.5 °C. The molecule also gave an IC50 against human DGAT1 of 214 nM.
The matching figures for `COC(=O)c1cccc(C(=O)Nc2ccc(N3CCN(C(=O)Nc4c(Cl)cc(CN5CCCC5)cc4Cl)CC3)cc2)c1` [Compound 140]: 247.52 °C and 12.6 nM.
`Cc1ccc2c(c1)C(=O)c1cc(C)cc(C(=O)Nc3ccc(C4CCN(C(=O)Nc5c(Cl)cccc5Cl)CC4)cc3)c1-2` [Compound 64]: the IC50 against human DGAT1 is 132 nM.
In turn, `CN1CCN(C(=O)Cc2cc(Cl)c(NC(=O)N3CCN(c4ccc(NC(=O)c5cccc(N6CCCC6)c5)cc4)CC3)c(Cl)c2)CC1` [Compound 136] gave a melting point of 254.77 °C. In addition, the IC50 against human DGAT1 was 1.82 nM.
In turn, `O=C(Nc1ccc(N2CCN(C(=O)Nc3c(Cl)cccc3Cl)CC2)cc1)c1ccccc1-c1nc2ccccc2[nH]1` [Compound 45] had an IC50 against human DGAT1 of 56.2 nM.
Still for that read-out and setting: to `CC(C)(C)OC(=O)N1CCCC1C(=O)Nc1ccc(C2CCN(C(=O)Nc3c(Cl)cccc3Cl)CC2)cc1` (stereo not drawn) [Compound 51] belongs 490 nM; to `Cc1ccc2c(c1)C(=O)c1cc(C)cc(C(=O)Nc3ccc(N4CCN(C(=O)Nc5c(Cl)cccc5Cl)CC4)cc3)c1-2` [Compound 67], 148 nM.
At human DGAT1, `O=C(Nc1ccc(N2CCN(C(=O)Nc3ccccc3I)CC2)cc1)c1ccccc1-c1ccc(C(F)(F)F)cc1` [Compound 91] had an IC50 of 1510 nM.
In the case of `Cc1cccc([N+](=O)[O-])c1NC(=O)N1CCN(c2ccc(NC(=O)c3ccccc3-c3ccc(C(F)(F)F)cc3)cc2)CC1` [Compound 95], on human DGAT1, 407 nM corresponded to half-maximal inhibition (IC50).
Take `O=C(Nc1ccc(N2CCN(C(=O)Nc3ccccc3[N+](=O)[O-])CC2)cc1)c1ccccc1-c1ccc(C(F)(F)F)cc1` [Compound 92]: on human DGAT1, 2340 nM corresponded to half-maximal inhibition (IC50).
The same measure, in the same setting: to `CCCc1ccccc1NC(=O)N1CCN(c2ccc(NC(=O)c3ccccc3-c3ccc(C(F)(F)F)cc3)cc2)CC1` [Compound 76] belongs 7590 nM; to `O=C(Nc1ccc(N2CCN(C(=O)Nc3c(Cl)cccc3Cl)CC2)cc1)c1ccc(-c2cnco2)cc1` [Compound 15], 12.9 nM; to `Cc1cc(C)c(NC(=O)N2CCC(c3ccc(NC(=O)c4ccccc4-c4ccc(C(F)(F)F)cc4)cc3)CC2)c(C)c1` [Compound 112], 269 nM.
For the molecule `O=C(Nc1ccc(N2CCN(C(=O)Nc3c(Cl)cccc3Cl)CC2)cc1)c1cccc(N2CCCC2=O)c1` [Compound 13], the IC50 at human DGAT1 is 11 nM.
In turn, `Cc1cccc(C(=O)Nc2ccc(C3CCN(C(=O)Nc4c(Cl)cccc4Cl)CC3)cc2)c1-c1ccc(C(F)(F)F)cc1` [Compound 59] had an IC50 against human DGAT1 of 2040 nM.
On the same count and under the same terms, to `O=C(Nc1ccc(N2CCN(C(=S)Nc3ccc(Cl)cc3Cl)CC2)cc1)c1ccccc1-c1ccc(C(F)(F)F)cc1` [Compound 68] belongs 7240 nM.
Turning to `CC(C)(C)OC(=O)N1CSCC1C(=O)Nc1ccc(C2CCN(C(=O)Nc3c(Cl)cccc3Cl)CC2)cc1` (stereo not drawn) [Compound 50], the IC50 against human DGAT1 was 295 nM.
The molecule `O=C(Nc1ccc(N2CCN(C(=O)Nc3c(Cl)cccc3Cl)CC2)cc1)c1cccc(N2CCCC2)c1` [Compound 12] showed an IC50 on human DGAT1 of 1.35 nM.
On the same count and under the same terms, to `O=C(Nc1ccc(C2CCN(C(=O)Nc3c(Cl)cccc3Cl)CC2)cc1)C1CC(O)CN1` (stereo not drawn) [Compound 47] belongs 5370 nM.
As for `O=C(Nc1cccc(N2CCCC2)c1)c1ccc(N2CCN(C(=O)Nc3c(Cl)cc(CCN4CCCC4)cc3Cl)CC2)cc1` [Compound 129], the midpoint of inhibition against human DGAT1, the IC50, lay at 5.37 nM.
`O=C(Nc1cccc(N2CCCC2)c1)c1ccc(N2CCN(C(=O)Cc3c(Cl)cccc3Cl)CC2)cc1` [Compound 131] showed an IC50 against human DGAT1 of 30.9 nM.
